We go through 3 compounds from patent US9079906B2, “Triazolopyridazines as PAR1 inhibitors, production thereof, and use as medicaments” (Sanofi, priority 2008, dated 2015).

Structures can show the parent of a compound that is named as a salt.

Sequence of PAR1 (P25116 22-425): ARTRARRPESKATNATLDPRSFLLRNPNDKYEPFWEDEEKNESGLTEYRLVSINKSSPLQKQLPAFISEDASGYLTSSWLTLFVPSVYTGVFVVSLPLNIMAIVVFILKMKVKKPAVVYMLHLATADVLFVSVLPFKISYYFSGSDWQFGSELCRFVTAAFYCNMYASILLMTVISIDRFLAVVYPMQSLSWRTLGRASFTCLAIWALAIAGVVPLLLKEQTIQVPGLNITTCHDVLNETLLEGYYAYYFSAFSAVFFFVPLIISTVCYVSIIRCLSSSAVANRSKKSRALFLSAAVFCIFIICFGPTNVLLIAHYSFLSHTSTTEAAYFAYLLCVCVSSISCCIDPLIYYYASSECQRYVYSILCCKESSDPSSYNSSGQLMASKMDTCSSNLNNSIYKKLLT

This assay has as its target PAR1 (Homo sapiens (Human), UniProt P25116). As to the kind of experiment: Inhibition of PAR1-mediated platelet aggregation induced by TRAP. As to conditions: TRAP-induced aggregation of washed platelets from healthy volunteer donors, 96-well format. In kind it is cell-based. How it is done: PAR1 determination method: inhibition of PAR1-mediated platelet aggregation
The pharmacological testing of the substances took place in platelet aggregation induced by TRAP (thrombin receptor-activating peptide) in 96-well format. For this purpose, blood was taken from healthy volunteer donors in 20 ml syringes containing 2 ml of 3.13% sodium citrate solution. After centrifugation at 150×g for 20 minutes, the platelet-rich plasma (PRP) was separated off and mixed with 1 μl of PGE1 solution (500 μg/ml in ethanol)/ml of PRP. Incubation at RT for 5 minutes was followed by centrifugation at 120×g for 15 minutes to remove the leukocytes. The leukocyte-free PRP was transferred in 5 ml portions into 15 ml PP tubes and centrifuged at 360×g for 15 minutes in order to pellet the platelets. The plasma was then decanted off and the platelet sediment from 5 ml of PRP was resuspended in 1 ml of Tyrode's (120 mM NaCl, 2.6 mM KCl, 12 mM NaHCO3, 0.39 mM NaH2PO4×H2O, 10 mM HEPES, 0.35% BSA, 5.5 mM glucose, pH 7.4) and adjusted with Tyrode's to a platelet count of 3×10^5/microliter (μL). 13 ml of this cell suspension were then mixed with 866 μL of 10 mM CaCl2 solution, and 120 μL thereof were pipetted into each well of a 96-well plate containing 15 μL of the substance to be tested. After incubation at room temperature in the dark for 30 minutes, 15 μL of a TRAP solution (70-100 μM) were added as agonist, and kinetics were recorded at 650 nm in a SpectraMax 340 at 37° C. for 20 minutes while shaking. The areas under the curves of negative control (Tyrode's/DMSO) and positive control (15 μl of agonist/DMSO) were calculated and the difference was fixed as the 100% value. The substances to be tested were pipetted as serial dilutions in duplicate determination, the AUC was likewise determined for each substance concentration, and the % inhibition of the AUC compared with the control was calculated. On the basis of the % inhibition, the IC50 was calculated by nonlinear regression analysis according to the 4-parameter equation.
The term IC50 denotes the concentration at which inhibition is half-maximal. The low end stands for greater potency in that assay, the high end for weaker potency in that assay. Compound `CCC(CC)Oc1cc(C)c2nn(CC(=O)c3cc(OCCCO)cc(C(C)(C)C)c3)c(=N)n2n1` [Example 90, 1-[3-tert-butyl-5-(3-hydroxy-propoxy)phenyl]-2-[6-(1-ethyl-propoxy)-3-imino-8-methyl-[1,2,4]triazolo[4,3-b]pyridazin-2-yl]ethanone hydrochloride] had an IC50 of 0.012 µM.
The result for `COCC(COC)Oc1cc(C)c2nn(CC(=O)c3cc(OCCO)cc(C(C)(C)C)c3)c(=N)n2n1` [Example 98, 1-[3-tert-butyl-5-(2-hydroxy-ethoxy)phenyl]-2-[3-imino-6-(2-methoxy-1-methoxymethyl-ethoxy)-8-methyl-[1,2,4]triazolo[4,3-b]pyridazin-2-yl]ethanone hydrochloride] reads 0.334 µM; that for `CCN(CC)c1cc(C)c2nn(CC(=O)c3cc(OC)cc(S(F)(F)(F)(F)F)c3)c(=N)n2n1` [Example 108, 2-(6-diethylamino-3-imino-8-methyl-[1,2,4]triazolo[4,3-b]pyridazin-2-yl)-1-[3-methoxy-5-(pentafluorosulfanyl)phenyl]-ethanone trifluoroacetic acid salt], 0.016 µM.
